The text below walks through data of US20250011329A1, “SUBSTITUTED PIPERIDINYL-METHYLPURINE PYRIDINES AND RELATED COMPOUNDS AND THEIR USE IN TREATING DISEASES AND CONDITIONS” (K36 Therapeutics, Inc., priority 2023, published 2025).

Assay [1] has as its target recombinant human NSD2 (Homo sapiens (Human), UniProt O96028). Description: NSD2 inhibitory assay (modified RBC HotSpot HMT Assay). The assay is classed as biochemical. The note with it: 2 nM NSD2, chicken oligonucleosomes 0.05 mg/ml, 3H-SAM 1 μM, 1 hour at 30° C. The method, then: Exemplary compounds were tested for NSD2 inhibitory activity using a modified RBC HotSpot HMT Assay.
A reaction mixture was prepared by adding oligonucleosomes from Chicken (0.05 mg/ml) to freshly prepared reaction buffer containing 50 mM Tris-HCl (pH 8.5), 50 mM NaCl, 5 mM MgCl2, 0.01% Brij35, 1 mM DTT, and 1% DMSO followed by the addition of recombinant human NSD2, (amino acids 2-end) with N-terminal His tag (2 nM; GenBank Accession No. NM_001042424; MW=155.5 kDa; expressed in Sf9 insect cells) and gentle mixing. The test compounds were diluted in DMSO, added to the reaction mixture in nanoliter amounts by using Acoustic Technology (Echo 550, LabCyte Inc. Sunnyvale, CA) and incubated for 20 minutes at room temperature. The reaction was initiated by the addition of S-Adenosyl-L-[methyl-^3H]methionine (3H-SAM; 1 μM), and the mixture was incubated for 1 hour at 30° C. The reaction mixture was delivered to filter paper and the methylated substrate was quantified by scintillation counting. Data analysis was performed using Excel and GraphPad Prism software for IC50 curve fits. For additional information on the histone methyltransferase assay, see, for example, Horiuchi K Y, et al., “Assay Development for Histone Methyltransferases,” Assay Drug Dev Technol. 2013 May; 11(4):227-36.

For assay [2], the target named is recombinant human NSD1 (Homo sapiens, UniProt Q96L73). Description: NSD1 inhibitory assay. The note with it: 2 nM NSD1, chicken oligonucleosomes 0.05 mg/ml, 3H-SAM 1 μM, 1 hour at 30° C. It counts as biochemical. How it is done: An exemplary compound was tested for NSD1 inhibitory activity.
A reaction mixture was prepared by adding oligonucleosomes from Chicken (0.05 mg/ml) to freshly prepared reaction buffer containing 50 mM Tris-HCl (pH 8.5), 50 mM NaCl, 5 mM MgCl2, 0.01% Brij35, 1 mM DTT, and 1% DMSO followed by the addition of recombinant human NSD1 (amino acids 2-end) with N-terminal His tag (2 nM) and gentle mixing. The test compounds were diluted in DMSO, added to the reaction mixture in nanoliter amounts by using Acoustic Technology (Echo 550, LabCyte Inc. Sunnyvale, CA) and incubated for 20 minutes at room temperature. The reaction was initiated by the addition of S-Adenosyl-L-[methyl-^3H] methionine (3H-SAM; 1 μM), and the mixture was incubated for 1 hour at 30° C. The reaction mixture was delivered to filter paper and the methylated substrate was quantified by scintillation counting. Data analysis was performed using Excel and GraphPad Prism software for IC50 curve fits. For additional information on the histone methyltransferase assay, see, for example, Horiuchi K Y, et al., “Assay Development for Histone Methyltransferases,” Assay Drug Dev Technol. 2013 May; 11(4):227-36.

Broadly, the IC50 is the midpoint of a concentration-inhibition curve.

Sequence of recombinant human NSD2 (O96028 2-1365 limits assumed): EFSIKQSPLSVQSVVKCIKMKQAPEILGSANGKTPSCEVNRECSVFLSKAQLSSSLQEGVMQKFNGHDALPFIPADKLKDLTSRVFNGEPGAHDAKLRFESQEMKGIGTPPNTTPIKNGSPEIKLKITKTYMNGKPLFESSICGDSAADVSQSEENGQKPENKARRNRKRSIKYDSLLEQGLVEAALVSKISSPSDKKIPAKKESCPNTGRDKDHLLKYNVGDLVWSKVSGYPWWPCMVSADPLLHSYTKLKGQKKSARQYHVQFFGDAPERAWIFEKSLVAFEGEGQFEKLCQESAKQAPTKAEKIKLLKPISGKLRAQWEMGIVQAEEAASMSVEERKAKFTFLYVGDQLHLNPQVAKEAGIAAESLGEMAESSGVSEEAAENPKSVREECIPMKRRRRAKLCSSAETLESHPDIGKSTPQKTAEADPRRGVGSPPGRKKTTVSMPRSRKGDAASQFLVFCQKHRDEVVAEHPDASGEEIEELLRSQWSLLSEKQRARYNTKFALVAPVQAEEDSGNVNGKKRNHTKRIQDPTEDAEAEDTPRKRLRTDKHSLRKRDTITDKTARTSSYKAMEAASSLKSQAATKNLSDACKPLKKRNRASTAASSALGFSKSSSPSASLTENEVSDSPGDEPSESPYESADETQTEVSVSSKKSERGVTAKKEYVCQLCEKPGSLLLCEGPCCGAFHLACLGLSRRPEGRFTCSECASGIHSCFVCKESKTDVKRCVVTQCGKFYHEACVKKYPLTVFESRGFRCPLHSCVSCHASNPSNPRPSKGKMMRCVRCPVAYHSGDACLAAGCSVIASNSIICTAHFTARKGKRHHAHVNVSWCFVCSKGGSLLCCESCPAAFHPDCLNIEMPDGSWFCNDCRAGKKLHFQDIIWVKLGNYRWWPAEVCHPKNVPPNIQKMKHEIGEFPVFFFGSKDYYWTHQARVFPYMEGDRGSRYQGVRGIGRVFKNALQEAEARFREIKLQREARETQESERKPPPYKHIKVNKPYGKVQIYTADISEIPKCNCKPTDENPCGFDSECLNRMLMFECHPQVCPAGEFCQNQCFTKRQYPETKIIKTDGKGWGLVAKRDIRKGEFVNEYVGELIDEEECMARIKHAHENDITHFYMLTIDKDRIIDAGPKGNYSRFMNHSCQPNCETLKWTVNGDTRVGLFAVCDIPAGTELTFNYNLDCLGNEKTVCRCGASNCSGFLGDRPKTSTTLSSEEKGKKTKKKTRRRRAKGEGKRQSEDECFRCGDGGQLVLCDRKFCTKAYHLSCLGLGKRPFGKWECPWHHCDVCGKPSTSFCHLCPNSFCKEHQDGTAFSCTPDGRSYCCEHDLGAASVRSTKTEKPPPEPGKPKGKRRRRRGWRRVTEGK

With `Nc1ncnc2c1ncn2Cc1cc(-c2cc(F)c(O)cc2F)ncc1N1CCC[C@](N)([C@H](O)C(F)F)C1` [Compound J, 4-(5-((R)-3-amino-3-((S)-2,2-difluoro-1-hydroxyethyl)piperidin-1-yl)-4-((6-amino-9H-purin-9-yl)methyl)pyridin-2-yl)-2,5-difluorophenol], the IC50 in assay [1] is 2 to 20 nM. `COC(=O)COc1cc(F)c(-c2cc(Cn3cnc4c(N)ncnc43)c(N3CCC[C@](N)([C@H](O)C(F)F)C3)cn2)cc1F` [III-35, methyl 2-(4-(5-((R)-3-amino-3-((S)-2,2-difluoro-1-hydroxyethyl)piperidin-1-yl)-4-((6-amino-9H-purin-9-yl)methyl)pyridin-2-yl)-2,5-difluorophenoxy)acetate]: the results for the IC50 in assay [2] and in assay [1] were less than 1 nM and less than 2 nM, respectively.
